From paper PMC7047876, “Potent Chimeric Antimicrobial Derivatives of the Medicago truncatula NCR247 Symbiotic Peptide” (Frontiers in Microbiology, 2020)
≈ marks a conversion by molar mass, not a printed value. Peptide text beside a SMILES is read from it.

Legend:
Format in all cases: cell-based
Acinetobacter baumannii = conditions: MHB; for MBC in Mueller Hinton Broth, panel (A), A. b.: 3 h treatment; for MBC in Mueller Hinton Broth, panel (A), A. b. / MBC in Mueller Hinton Broth, panel (B), A. b.: 37°C (panel assigned); for MIC in Mueller Hinton Broth, panel (C), A. b.: 20 h cultivation, 37°C, optical density (panel assigned); for MBC in Mueller Hinton Broth, panel (B), A. b.: 20 h treatment
Excerpt: (§1) The pathogenic bacterial strains obtained from the ATCC (United States) and NCTC (National Collection of Type Cultures – England) were the Gram-positive: Enterococcus faecalis (ATCC 29212), Staphylococcus aureus (HNCMO112011), Listeria monocytogenes (ATCC 19111) and the Gram-negative: Pseudomonas aeruginosa (ATCC 27853), Escherichia coli (ATCC 8739), Salmonella enterica (ATCC 13076), Klebsiella pneumoniae (NCTC 13440), Acinetobacter baumannii (ATCC 17978).
(§2) Ca^2+ and Mg^2+ can inhibit the antimicrobial activity of cationic peptides, therefore the MBC and MIC values were also determined in MHB, which unlike PPB contains divalent cations and allows growth of bacteria. Bacteria were grown and prepared similarly except that bacteria were resuspended in MHB. 10 μl of bacteria OD600 = 0.1, supplemented with 45 μl MHB and 45 μl of 2-fold dilution series of peptides, were cultivated for 3 and 20 h at 37°C with shaking. Optical density of each sample was measured (Hidex Sense Microplate Reader with Plate Reader Software version 5064) and 5 μl was placed on LB agar plates after 3 and 20 h treatment. The minimal inhibitory concentration (MIC) corresponded to the lowest concentration, which inhibited growth.

Escherichia coli = conditions: MHB; for MBC in Mueller Hinton Broth, panel (A), E. c.: 3 h treatment; for MBC in Mueller Hinton Broth, panel (A), E. c. / MBC in Mueller Hinton Broth, panel (B), E. c.: 37°C (panel assigned); for MIC in Mueller Hinton Broth, panel (C), E. c.: 20 h cultivation, 37°C, optical density (panel assigned); for MBC in Mueller Hinton Broth, panel (B), E. c.: 20 h treatment
Excerpt: as §1, §2

Staphylococcus aureus = conditions: MHB; for MBC in Mueller Hinton Broth, panel (A), S. a.: 3 h treatment; for MBC in Mueller Hinton Broth, panel (A), S. a. / MBC in Mueller Hinton Broth, panel (B), S. a.: 37°C (panel assigned); for MIC in Mueller Hinton Broth, panel (C), S. a.: 20 h cultivation, 37°C, optical density (panel assigned); for MBC in Mueller Hinton Broth, panel (B), S. a.: 20 h treatment
Excerpt: as §1, §2

[1] = test system: Salmonella enterica (ATCC 13076); assay: microbe, parasite or virus in culture; conditions: 3 h treatment in PPB (20 mM potassium-phosphate buffer, pH 7.4), 37°C, then plating on LB agar; read-out: Minimal bactericidal concentration (MBC) S. e.
Excerpt: as §1
(§3) Overnight bacterial cultures grown in LB were diluted and grown to OD600 = 0.2–0.6 at 37°C with shaking. After harvesting and washing bacteria in PPB, the suspensions were adjusted to OD600 = 0.1 corresponding to ∼10^7 bacteria/mL. Antimicrobial activity of the peptides and the antibiotics was determined in PPB in 96 well microplates using 10 μL bacterial suspension and 90 μL of the 2-fold serial dilutions of peptides or antibiotics. Peptides were tested from 25 μM to 0.125 μM whereas the antibiotics; carbenicillin (Cb) from Duchefa Biochemie (Prod.No. C0109.0025) and levofloxacin (Lvx) from Sigma-Aldrich (Prod.No. 28266-10MG-F) from […] to 0.1 μM. The microplates were incubated for 3 h at 37°C with 250 rpm shaking and then 5 μl from each sample was placed on LB agar and the growth of bacteria was monitored after overnight incubation at 37°C. The lowest concentration of the antimicrobial agents, which completely eliminated viable bacteria was the minimal bactericidal concentration (MBC).

[2] = test system: Listeria monocytogenes (ATCC 19111); assay: microbe, parasite or virus in culture; conditions: 3 h treatment in PPB (20 mM potassium-phosphate buffer, pH 7.4), 37°C, then plating on LB agar; read-out: Minimal bactericidal concentration (MBC) L. m.
Excerpt: as §1, §3

[3] = test system: Klebsiella pneumoniae (NCTC 13440); assay: microbe, parasite or virus in culture; conditions: 3 h treatment in PPB (20 mM potassium-phosphate buffer, pH 7.4), 37°C, then plating on LB agar; read-out: Minimal bactericidal concentration (MBC) K. p.
Excerpt: as §1, §3

[4] = test system: Enterococcus faecalis (ATCC 29212); assay: microbe, parasite or virus in culture; conditions: 3 h treatment in PPB (20 mM potassium-phosphate buffer, pH 7.4), 37°C, then plating on LB agar; read-out: Minimal bactericidal concentration (MBC) E. f.
Excerpt: as §1, §3

[5] = test system: Acinetobacter baumannii (ATCC 17978); assay: microbe, parasite or virus in culture; conditions: 3 h treatment in PPB (20 mM potassium-phosphate buffer, pH 7.4), 37°C, then plating on LB agar; read-out: Minimal bactericidal concentration (MBC) A. b.
Excerpt: as §1, §3

[6] = test system: Escherichia coli (ATCC 8739); assay: microbe, parasite or virus in culture; conditions: 3 h treatment in PPB (20 mM potassium-phosphate buffer, pH 7.4), 37°C, then plating on LB agar; read-out: Minimal bactericidal concentration (MBC) E. c.
Excerpt: as §1, §3

[7] = test system: Pseudomonas aeruginosa (ATCC 27853); assay: microbe, parasite or virus in culture; conditions: 3 h treatment in PPB (20 mM potassium-phosphate buffer, pH 7.4), 37°C, then plating on LB agar; read-out: Minimal bactericidal concentration (MBC) P. a.
Excerpt: as §1, §3

[8] = test system: Staphylococcus aureus (HNCMO112011); assay: microbe, parasite or virus in culture; conditions: 3 h treatment in PPB (20 mM potassium-phosphate buffer, pH 7.4), 37°C, then plating on LB agar; read-out: Minimal bactericidal concentration (MBC) S. a.
Excerpt: as §1, §3

[9] = test system: ESKAPE bacteria, L. monocytogenes and S. enterica; assay: Antimicrobial activity in PPB, summarised over the tested bacteria; conditions: PPB, peptides tested up to 25 μM
Excerpt: as §1, §3

## CC[C@H](C)[C@H](NC(=O)[C@H](CCCCN)NC(=O)[C@H](CCCCN)NC(=O)[C@H](C)NC(=O)[C@H](CC(C)C)NC(=O)[C@H](C)NC(=O)[C@H](C)NC(=O)[C@H](CC(C)C)NC(=O)[C@H](C)NC(=O)[C@@H](N)CCCCN)C(=O)N[C@@H](CC(C)C)C(N)=O [I, X2] (H-KALAALAKKIL-NH2)
Acinetobacter baumannii
  MBC in Mueller Hinton Broth, panel (A), A. b.: > 25 µM
  MIC in Mueller Hinton Broth, panel (C), A. b.: 25 µM (≈ 28.5 µg/mL)
  MBC in Mueller Hinton Broth, panel (B), A. b.: >25 µM
Escherichia coli
  MBC in Mueller Hinton Broth, panel (A), E. c.: > 25 µM
  MIC in Mueller Hinton Broth, panel (C), E. c.: >25 µM
  MBC in Mueller Hinton Broth, panel (B), E. c.: >25 µM
Staphylococcus aureus
  MBC in Mueller Hinton Broth, panel (A), S. a.: > 25 µM
  MIC in Mueller Hinton Broth, panel (C), S. a.: >25 µM
  MBC in Mueller Hinton Broth, panel (B), S. a.: >25 µM
[1]
  MBC: >25 µM
[2]
  MBC: 25 µM (≈ 28.5 µg/mL)
[3]
  MBC: >25 µM
[4]
  MBC: >25 µM
[5]
  MBC: 25 µM (≈ 28.5 µg/mL)
[6]
  MBC: >25 µM
[7]
  MBC: 6.3 µM (≈ 7.17 µg/mL)
[8]
  MBC: 25 µM (≈ 28.5 µg/mL)

## CC[C@H](C)[C@H](NC(=O)[C@H](CCCCN)NC(=O)[C@H](CCCCN)NC(=O)[C@H](C)NC(=O)[C@H](CC(C)C)NC(=O)[C@H](C)NC(=O)[C@H](C)NC(=O)[C@H](CC(C)C)NC(=O)[C@H](C)NC(=O)[C@H](CCCCN)NC(=O)[C@H](CC(C)C)NC(=O)[C@H](CC(N)=O)NC(=O)[C@@H](NC(=O)[C@H](CCCCN)NC(=O)CNC(=O)[C@H](CC(C)C)NC(=O)[C@H](CC(C)C)NC(=O)[C@H](Cc1ccc(O)cc1)NC(=O)CNC(=O)[C@H](C)NC(=O)[C@H](CO)NC(=O)[C@H](CC(N)=O)NC(=O)[C@H](CC(C)C)NC(=O)[C@@H](NC(=O)[C@H](Cc1c[nH]c2ccccc12)NC(=O)CN)[C@@H](C)O)[C@@H](C)CC)C(=O)N[C@@H](CC(C)C)C(N)=O [J, Transportan, reference compound]
Acinetobacter baumannii
  MBC in Mueller Hinton Broth, panel (A), A. b.: 3.1 µM (≈ 8.81 µg/mL)
  MIC in Mueller Hinton Broth, panel (C), A. b.: 3.1 µM (≈ 8.81 µg/mL)
  MBC in Mueller Hinton Broth, panel (B), A. b.: 3.1 µM (≈ 8.81 µg/mL)
Escherichia coli
  MBC in Mueller Hinton Broth, panel (A), E. c.: 6.3 µM (≈ 17.9 µg/mL)
  MIC in Mueller Hinton Broth, panel (C), E. c.: 3.1 µM (≈ 8.81 µg/mL)
  MBC in Mueller Hinton Broth, panel (B), E. c.: 6.3 µM (≈ 17.9 µg/mL)
Staphylococcus aureus
  MBC in Mueller Hinton Broth, panel (A), S. a.: 6.3 µM (≈ 17.9 µg/mL)
  MIC in Mueller Hinton Broth, panel (C), S. a.: 3.1 µM (≈ 8.81 µg/mL)
  MBC in Mueller Hinton Broth, panel (B), S. a.: 3.1 µM (≈ 8.81 µg/mL)
[1]
  MBC: 1.6 µM (≈ 4.54 µg/mL)
[2]
  MBC: 3.1 µM (≈ 8.81 µg/mL)
[3]
  MBC: 3.1 µM (≈ 8.81 µg/mL)
[4]
  MBC: 3.1 µM (≈ 8.81 µg/mL)
[5]
  MBC: 1.6 µM (≈ 4.54 µg/mL)
[6]
  MBC: 3.1 µM (≈ 8.81 µg/mL)
[7]
  MBC: 3.1 µM (≈ 8.81 µg/mL)
[8]
  MBC: 3.1 µM (≈ 8.81 µg/mL)

## RNGCIVDPRCPY [N-terminal part, 12 amino acid long N-terminal half of NCR247]
[9]
  Antimicrobial activity on the tested bacteria: inactive
